Measured values taken from US20260365642A1, “ANTIPARASITIC COMPOUNDS” (Animol Discovery, Inc., priority 2023, published 2026).

test system: Dirofilaria immitis L1 larvae; assay: Screening against microfilaria (L1 larvae) of Dirofilaria immitis, survival/motility; format: in vivo; conditions: 72 h, read-out: Ranked D. immitis L1 MED Activity
Experimental: Example 44. Screening of Compounds Against Microfilaria of Dirofilaria immitis
To evaluate the efficacy of compounds of the disclosure against Dirofilaria immitis, L1 stage larvae were exposed to various concentrations of the compounds to determine survival or paralysis of the larvae. Results are reported as the minimum effective dose (MED), defined as the concentration required to eliminate motility.
To perform the assay, microfilaria of Dirofilaria immitis were added to the wells of a microtiter plate containing buffer and the test compounds in DMSO. Microfilaria exposed to DMSO alone served as controls. An assessment was conducted at 72 hours to determine survival of the microfilaria.

`CN(CC1CN(S(C)(=O)=O)CCO1)c1cc(N2CCOC3(CCCCC3)C2)nc(C(F)(F)F)n1` (racemic) [Compound 4, (R) and (S)-N-methyl-N-((4-(methylsulfonyl)morpholin-2-yl)methyl)-6-(1-oxa-4-azaspiro[5.5]undecan-4-yl)-2-(trifluoromethyl)pyrimidin-4-amine] and `CN(CC1CN(S(C)(=O)=O)CCO1)c1cc(N2CCOC3(CCCC3)C2)nc(C(F)(F)F)n1` (stereo not shown) [Compound 16, N-methyl-N-((4-(methylsulfonyl)morpholin-2-yl)methyl)-6-(6-oxa-9-azaspiro[4.5]decan-9-yl)-2-(trifluoromethyl)pyrimidin-4-amine] cannot be ordered by minimal effective concentration: < 30000 µM for the first, < 30000 µM for the second.

`CN(C[C@H]1CN(S(C)(=O)=O)CCO1)c1cc(N2CCCC3(CCCCC3)C2)nc(C(F)(F)F)n1` [Compound 1, (S)-N-methyl-N-((4-(methylsulfonyl)morpholin-2-yl)methyl)-6-(2-azaspiro[5.5]undecan-2-yl)-2-(trifluoromethyl)pyrimidin-4-amine] and `CN(CC1CCN(S(C)(=O)=O)C1)c1cc(N2CCCC3(CCCCC3)C2)nc(C(F)(F)F)n1` (stereo not shown) [Compound 9, N-methyl-N-((1-(methylsulfonyl)pyrrolidin-3-yl)methyl)-6-(2-azaspiro[5.5]undecan-2-yl)-2-(trifluoromethyl)pyrimidin-4-amine] cannot be ordered by minimal effective concentration: < 10000 µM for the first, < 30000 µM for the second.

`CN(Cc1ccc(S(=O)(=O)N(C)C)cc1)c1cc(N2CCCC3(CCCCC3)C2)nc(C(F)(F)F)n1` [Compound 5, 4-(((6-(2-azaspiro[5.5]undecan-2-yl)-2-(trifluoromethyl)pyrimidin-4-yl)(methyl)amino)methyl)-N,N-dimethylbenzenesulfonamide] and `CN(Cc1ccc(S(C)(=O)=O)cc1)c1cc(N2CCCC3(CCCCC3)C2)nc(C(F)(F)F)n1` [Compound 6, N-methyl-N-(4-(methylsulfonyl)benzyl)-6-(2-azaspiro[5.5]undecan-2-yl)-2-(trifluoromethyl)pyrimidin-4-amine] cannot be ordered by minimal effective concentration: > 100000 µM for the first, > 100000 µM for the second.

`CN(c1cc(N2CCCC3(CCCCC3)C2)nc(C(F)(F)F)n1)C1CC2(CC(NS(C)(=O)=O)C2)C1` (stereo not shown) [Compound 7, N-(6-((6-(2-azaspiro[5.5]undecan-2-yl)-2-(trifluoromethyl)pyrimidin-4-yl)(methyl)amino)spiro[3.3]heptan-2-yl)methanesulfonamide] and `CS(=O)(=O)N1CC2(CC(Nc3cc(N4CCCC5(CCCCC5)C4)nc(C(F)(F)F)n3)C2)C1` [Compound 12, N-(6-(2-azaspiro[5.5]undecan-2-yl)-2-(trifluoromethyl)pyrimidin-4-yl)-2-(methylsulfonyl)-2-azaspiro[3.3]heptan-6-amine] cannot be ordered by minimal effective concentration: > 100000 µM for the first, > 100000 µM for the second.

Going from `CN(CCOc1ccccc1)c1cc(N2CCCC3(CCCCC3)C2)nc(C(F)(F)F)n1` [Compound 8, N-methyl-N-(2-phenoxyethyl)-6-(2-azaspiro[5.5]undecan-2-yl)-2-(trifluoromethyl)pyrimidin-4-amine] to `CN(CCN1CCCS1(=O)=O)c1cc(N2CCCC3(CCCCC3)C2)nc(C(F)(F)F)n1` [Compound 11, 2-(2-((6-(2-azaspiro[5.5]undecan-2-yl)-2-(trifluoromethyl)pyrimidin-4-yl)(methyl)amino)ethyl)isothiazolidine 1,1-dioxide], the minimal effective concentration falls from > 100000 µM to < 30000 µM.

Compared with `CN(C)S(=O)(=O)N1CC2(CN(c3cc(N4CCCC5(CCCCC5)C4)nc(C(F)(F)F)n3)C2)C1` [Compound 10, 6-(6-(2-azaspiro[5.5]undecan-2-yl)-2-(trifluoromethyl)pyrimidin-4-yl)-N,N-dimethyl-2,6-diazaspiro[3.3]heptane-2-sulfonamide], `CN(CC1CN(S(C)(=O)=O)C1)c1cc(N2CCCC3(CCCCC3)C2)nc(C(F)(F)F)n1` [Compound 13, N-methyl-N-((1-(methylsulfonyl)azetidin-3-yl)methyl)-6-(2-azaspiro[5.5]undecan-2-yl)-2-(trifluoromethyl)pyrimidin-4-amine] is lower in minimal effective concentration: > 100000 µM for the first, < 10000 µM for the second.

Compared with `CN(CC1CCCN(S(C)(=O)=O)C1)c1cc(N2CCCC3(CCCCC3)C2)nc(C(F)(F)F)n1` (stereo not shown) [Compound 14, N-methyl-N-((1-(methylsulfonyl)piperidin-3-yl)methyl)-6-(2-azaspiro[5.5]undecan-2-yl)-2-(trifluoromethyl)pyrimidin-4-amine], `CS(=O)(=O)N1CCOC(CNc2cc(N3CCCC4(CCCCC4)C3)nc(C(F)(F)F)n2)C1` (stereo not shown) [Compound 15, N-((4-(methylsulfonyl)morpholin-2-yl)methyl)-6-(2-azaspiro[5.5]undecan-2-yl)-2-(trifluoromethyl)pyrimidin-4-amine] is lower in minimal effective concentration: > 100000 µM for the first, < 10000 µM for the second.

`CN(CC1CN(S(C)(=O)=O)CCO1)c1cc(N2CC3CCC(C2)O3)nc(C(F)(F)F)n1` (stereo not shown) [Compound 17, 6-(8-oxa-3-azabicyclo[3.2.1]octan-3-yl)-N-methyl-N-((4-(methylsulfonyl)morpholin-2-yl)methyl)-2-(trifluoromethyl)pyrimidin-4-amine] and `CN(CC1CN(S(C)(=O)=O)CCO1)c1cc(N2CC3CC(C2)O3)nc(C(F)(F)F)n1` (stereo not shown) [Compound 18, 6-(6-oxa-3-azabicyclo[3.1.1]heptan-3-yl)-N-methyl-N-((4-(methylsulfonyl)morpholin-2-yl)methyl)-2-(trifluoromethyl)pyrimidin-4-amine] cannot be ordered by minimal effective concentration: > 100000 µM for the first, > 100000 µM for the second.

Going from `CS(=O)(=O)N1CCOC(CN(Cc2ccccc2)c2cc(N3CCOC4(CCCCC4)C3)nc(C(F)(F)F)n2)C1` (stereo not shown) [Compound 19, N-benzyl-N-((4-(methylsulfonyl)morpholin-2-yl)methyl)-6-(1-oxa-4-azaspiro[5.5]undecan-4-yl)-2-(trifluoromethyl)pyrimidin-4-amine] to `CCN(CC1CN(S(C)(=O)=O)CCO1)c1cc(N2CCOC3(CCCCC3)C2)nc(C(F)(F)F)n1` (stereo not shown) [Compound 20, N-ethyl-N-((4-(methylsulfonyl)morpholin-2-yl)methyl)-6-(1-oxa-4-azaspiro[5.5]undecan-4-yl)-2-(trifluoromethyl)pyrimidin-4-amine], the minimal effective concentration falls from > 100000 µM to < 10000 µM.

`CN(CC1CN(S(C)(=O)=O)CCO1)c1cc(N2CCOC3(CCC(F)(F)CC3)C2)nc(C(F)(F)F)n1` (stereo not shown) [Compound 21, 6-(9,9-difluoro-1-oxa-4-azaspiro[5.5]undecan-4-yl)-N-methyl-N-((4-(methylsulfonyl)morpholin-2-yl)methyl)-2-(trifluoromethyl)pyrimidin-4-amine] and `CN(CC1CN(S(C)(=O)=O)CCO1)c1cc(N2CCC(F)(F)C3(CCCCC3)C2)nc(C(F)(F)F)n1` (stereo not shown) [Compound 23, 6-(5,5-difluoro-2-azaspiro[5.5]undecan-2-yl)-N-methyl-N-((4-(methylsulfonyl)morpholin-2-yl)methyl)-2-(trifluoromethyl)pyrimidin-4-amine] cannot be ordered by minimal effective concentration: < 10000 µM for the first, < 10000 µM for the second.

Compared with `CN(CC1CN(S(C)(=O)=O)CCC1(F)F)c1cc(N2CCC(F)(F)C3(CCCCC3)C2)nc(C(F)(F)F)n1` (stereo not shown) [Compound 22, N-((4,4-difluoro-1-(methylsulfonyl)piperidin-3-yl)methyl)-6-(5,5-difluoro-2-azaspiro[5.5]undecan-2-yl)-N-methyl-2-(trifluoromethyl)pyrimidin-4-amine], `CN(CC1CN(S(C)(=O)=O)CCC1(F)F)c1cc(N2CCOC3(CCCCC3)C2)nc(C(F)(F)F)n1` (stereo not shown) [Compound 24, N-((4,4-difluoro-1-(methylsulfonyl)piperidin-3-yl)methyl)-N-methyl-6-(1-oxa-4-azaspiro[5.5]undecan-4-yl)-2-(trifluoromethyl)pyrimidin-4-amine] is lower in minimal effective concentration: > 100000 µM for the first, < 10000 µM for the second.

First: CN(CC1CN(S(C)(=O)=O)CCS1(=O)=O)c1cc(N2CCOC3(CCCCC3)C2)nc(C(F)(F)F)n1 (stereo not shown) [Compound 25, 2-(((6-(1-oxa-4-azaspiro[5.5]undecan-4-yl)-2-(trifluoromethyl)pyrimidin-4-yl)(methyl)amino)methyl)-4-(methylsulfonyl)thiomorpholine 1,1-dioxide]
Second: CN(CC1CN(S(C)(=O)=O)CCS1)c1cc(N2CCOC3(CCCCC3)C2)nc(C(F)(F)F)n1 (stereo not shown) [Compound 26, N-methyl-N-((4-(methylsulfonyl)thiomorpholin-2-yl)methyl)-6-(1-oxa-4-azaspiro[5.5]undecan-4-yl)-2-(trifluoromethyl)pyrimidin-4-amine]
The minimal effective concentration of the first is higher: > 100000 µM for the first, < 30000 µM for the second.

`CN(CC1CN(S(C)(=O)=O)CCO1)c1cc(N2CCS(=O)(=O)C3(CCCCC3)C2)nc(C(F)(F)F)n1` (stereo not shown) [Compound 27, 4-(6-(methyl((4-(methylsulfonyl)morpholin-2-yl)methyl)amino)-2-(trifluoromethyl)pyrimidin-4-yl)-1-thia-4-azaspiro[5.5]undecane 1,1-dioxide] and `CN(CC1CN(S(C)(=O)=O)CCS1(=O)=O)c1cc(N2CCS(=O)(=O)C3(CCCCC3)C2)nc(C(F)(F)F)n1` (stereo not shown) [Compound 29, 4-(6-(methyl((4-(methylsulfonyl)-1,1-dioxidothiomorpholin-2-yl)methyl)amino)-2-(trifluoromethyl)pyrimidin-4-yl)-1-thia-4-azaspiro[5.5]undecane 1,1-dioxide] cannot be ordered by minimal effective concentration: < 30000 µM for the first, < 30000 µM for the second.

`CN(CC1CN(S(C)(=O)=O)CCO1)c1cc(N2CCSC3(CCCCC3)C2)nc(C(F)(F)F)n1` (stereo not shown) [Compound 28, N-methyl-N-((4-(methylsulfonyl)morpholin-2-yl)methyl)-6-(1-thia-4-azaspiro[5.5]undecan-4-yl)-2-(trifluoromethyl)pyrimidin-4-amine] and `CN(CC1CN(S(C)(=O)=O)CCS1)c1cc(N2CCSC3(CCCCC3)C2)nc(C(F)(F)F)n1` (stereo not shown) [Compound 30, N-methyl-N-((4-(methylsulfonyl)thiomorpholin-2-yl)methyl)-6-(1-thia-4-azaspiro[5.5]undecan-4-yl)-2-(trifluoromethyl)pyrimidin-4-amine] cannot be ordered by minimal effective concentration: < 10000 µM for the first, < 10000 µM for the second.
